Test results from patent publication US20210255193A1, “LYSINE REACTIVE PROBES AND USES THEREOF” (The Scripps Research Institute, priority 2017, published 2021).

What was measured:
Test in all cases: competitive isoTOP-ABPP
Type in all cases: binding
[1] = biological target: T1, MRPS24 28S ribosomal protein S24, mitochondrial (Homo sapiens, UniProt Q96EL2); conditions: for isoTOP-ABPP ratio (R) at liganded lysine Q96EL2_K94: sol, 231
T1 construct: isoTOP-ABPP experiments performed in cell lysates (in vitro); endogenous in cells; host or cells: soluble proteome of human cancer cell lines (MDA-MB-231; Ramos and Jurkat also prepared)
Summary of the method: (§1)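 Competition format: fragment (50 μM activated ester, 100 μM guanidinylating agent) versus vehicle in lysate, then lysine probe STP-alkyne at 0.1 mM for 1 h. Quantitation by light/heavy TEV-tag MS1 peak areas, reported as R.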

[2] = biological target: T2, NPEPPS Puromycin-sensitive aminopeptidase (Homo sapiens, UniProt P55786); conditions: for isoTOP-ABPP ratio (R) at liganded lysine P55786_K712: sol, 231; for isoTOP-ABPP ratio, lysine P55786_K712: 50 uM_231_sol_in vitro
T2 construct: isoTOP-ABPP experiments performed in cell lysates (in vitro); endogenous in cells; host or cells: soluble proteome of human cancer cell lines (MDA-MB-231, Ramos, Jurkat)
Summary of the method: as §1

[3] = biological target: T3, PNPO Pyridoxine-5-phosphate oxidase (Homo sapiens, UniProt Q9NVS9); conditions: for isoTOP-ABPP ratio (R) at liganded lysine Q9NVS9_K100: sol, 231; for isoTOP-ABPP ratio, lysine Q9NVS9_K100: 50 uM_231_sol_in vitro
T3 construct: endogenous in cells; host or cells: MDA-MB-231 (soluble fraction of lysate)
T3 sequence (Q9NVS9 1-261): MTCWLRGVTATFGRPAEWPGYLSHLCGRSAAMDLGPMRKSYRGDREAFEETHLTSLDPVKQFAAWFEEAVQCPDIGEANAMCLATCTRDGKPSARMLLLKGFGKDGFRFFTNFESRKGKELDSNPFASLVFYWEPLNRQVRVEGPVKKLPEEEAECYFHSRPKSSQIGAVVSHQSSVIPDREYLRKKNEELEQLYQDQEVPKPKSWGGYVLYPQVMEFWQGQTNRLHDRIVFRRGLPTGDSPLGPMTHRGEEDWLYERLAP
Summary of the method: as §1

[4] = biological target: T4, POLR2L DNA-directed RNA polymerases I, II, and III subunit (Homo sapiens, UniProt P62875); conditions: for isoTOP-ABPP ratio (R) at liganded lysine P62875_K67: sol, 231; for isoTOP-ABPP ratio, lysine P62875_K67: 50 uM_231_sol_in vitro
T4 construct: isoTOP-ABPP experiments performed in cell lysates (in vitro); endogenous in cells; host or cells: soluble proteome of human cancer cell lines (MDA-MB-231, Ramos, Jurkat)
Summary of the method: as §1

DCTN2 Dynactin subunit 2 = biological target: T5, DCTN2 Dynactin subunit 2 (Homo sapiens, UniProt Q13561); conditions: for isoTOP-ABPP ratio (R) at liganded lysine Q13561_K175: sol, 231; for isoTOP-ABPP ratio, lysine Q13561_K175: 50 uM_231_sol_in vitro
T5 construct: isoTOP-ABPP experiments performed in cell lysates (in vitro); endogenous in cells; host or cells: soluble proteome of human cancer cell lines (MDA-MB-231, Ramos, Jurkat)
Summary of the method: as §1

T2 sequence (P55786 whole entry): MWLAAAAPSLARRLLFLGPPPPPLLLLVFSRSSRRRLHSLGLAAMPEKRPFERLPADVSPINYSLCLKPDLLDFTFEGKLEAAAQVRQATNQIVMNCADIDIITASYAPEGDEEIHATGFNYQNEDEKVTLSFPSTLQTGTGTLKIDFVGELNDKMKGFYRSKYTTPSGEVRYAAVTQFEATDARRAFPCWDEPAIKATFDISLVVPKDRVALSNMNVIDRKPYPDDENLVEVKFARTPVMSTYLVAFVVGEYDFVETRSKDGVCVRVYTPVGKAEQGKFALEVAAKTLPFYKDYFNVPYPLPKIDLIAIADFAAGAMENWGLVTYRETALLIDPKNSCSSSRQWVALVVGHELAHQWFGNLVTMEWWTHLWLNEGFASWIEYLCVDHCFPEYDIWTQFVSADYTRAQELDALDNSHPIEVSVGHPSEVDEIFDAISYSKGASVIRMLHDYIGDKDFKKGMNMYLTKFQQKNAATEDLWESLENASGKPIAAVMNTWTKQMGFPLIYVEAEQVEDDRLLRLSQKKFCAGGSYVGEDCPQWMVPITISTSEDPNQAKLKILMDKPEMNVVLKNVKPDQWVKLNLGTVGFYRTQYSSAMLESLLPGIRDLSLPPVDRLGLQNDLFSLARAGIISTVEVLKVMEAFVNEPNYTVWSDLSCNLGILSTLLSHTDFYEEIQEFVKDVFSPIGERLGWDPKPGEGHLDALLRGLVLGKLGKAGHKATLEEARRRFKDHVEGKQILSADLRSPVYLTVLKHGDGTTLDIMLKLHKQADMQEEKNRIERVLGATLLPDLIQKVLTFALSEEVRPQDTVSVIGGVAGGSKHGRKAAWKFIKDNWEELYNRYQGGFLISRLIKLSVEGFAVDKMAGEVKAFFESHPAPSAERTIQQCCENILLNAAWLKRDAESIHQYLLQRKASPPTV
T5 sequence (Q13561 whole entry): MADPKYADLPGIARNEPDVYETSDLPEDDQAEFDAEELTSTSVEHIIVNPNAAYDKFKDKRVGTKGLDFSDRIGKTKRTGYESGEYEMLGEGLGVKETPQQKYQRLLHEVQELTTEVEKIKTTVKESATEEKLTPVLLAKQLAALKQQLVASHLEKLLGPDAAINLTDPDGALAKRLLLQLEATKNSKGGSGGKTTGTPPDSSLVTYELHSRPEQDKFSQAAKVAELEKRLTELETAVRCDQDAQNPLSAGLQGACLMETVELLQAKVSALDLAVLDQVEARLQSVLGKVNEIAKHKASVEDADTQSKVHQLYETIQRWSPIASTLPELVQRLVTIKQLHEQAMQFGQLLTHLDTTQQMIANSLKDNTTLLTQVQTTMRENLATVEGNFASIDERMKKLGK

| SMILES | isoTOP-ABPP ratio (R) at liganded lysine Q96EL2_K94 ([1]; 50 uM, in vitro) | isoTOP-ABPP ratio (R) at liganded lysine P55786_K712 ([2]; 50 uM, in vitro) | isoTOP-ABPP ratio (R) at liganded lysine Q9NVS9_K100 ([3]; 50 uM, in vitro) | isoTOP-ABPP ratio (R) at liganded lysine P62875_K67 ([4]; 50 uM, in vitro) | isoTOP-ABPP ratio (R) at liganded lysine Q13561_K175 (DCTN2 Dynactin subunit 2; 50 uM, in vitro) | further results |
| --- | --- | --- | --- | --- | --- | --- |
| O=C(CCc1coc2cc(F)ccc2c1=O)Oc1ccc([N+](=O)[O-])cc1[N+](=O)[O-] [fragment 36, 2,4-Dinitrophenyl 3-(7-fluoro-4-oxo-4H-chromen-3-yl)propanoate] | 2.8 | 2.7 | 1.0 | 4.1 | – | – |
| O=C(Oc1ccc([N+](=O)[O-])cc1[N+](=O)[O-])C(c1ccccc1)(c1ccccc1)c1ccccc1 [fragment 42, 2,4-Dinitrophenyl 2,2,2-triphenylacetate] | 1.5 | 0.9 | 0.9 | 1.0 | 0.9 | – |
| O=C(CCc1coc2cc(F)ccc2c1=O)Oc1c(F)c(F)c(F)c(F)c1F [fragment 26, Pentafluorophenyl 3-(7-fluoro-4-oxo-4H-chromen-3-yl)propanoate] | – | – | – | – | – | isoTOP-ABPP reactivity ratio at lysine Q13561_K175 (DCTN2 Dynactin subunit 2; 50 uM, 231 sol, in vitro): 1.6; isoTOP-ABPP reactivity ratio at lysine Q96EL2_K94 ([1]; 50 uM, 231 sol, in vitro): 2.7; isoTOP-ABPP reactivity ratio at lysine P55786_K712 ([2]; 50 uM, 231 sol, in vitro): 1.2; isoTOP-ABPP reactivity ratio at lysine Q9NVS9_K100 ([3]; 50 uM, 231 sol, in vitro): 1.4; isoTOP-ABPP reactivity ratio at lysine P62875_K67 ([4]; 50 uM, 231 sol, in vitro): 1.1 |
| O=C(Oc1ccc([N+](=O)[O-])cc1[N+](=O)[O-])c1ccccc1Nc1cccc(C(F)(F)F)c1 [fragment 40, 2,4-Dinitrophenyl 2-((3-(trifluoromethyl)phenyl)amino)benzoate] | – | 1.0 | 0.9 | 1.0 | 0.9 | – |
| O=C(Oc1ccc([N+](=O)[O-])cc1[N+](=O)[O-])C1CCN(C(=O)OCc2ccccc2)CC1 [fragment 34, 1-Benzyl 4-(2,4-dinitrophenyl) piperidine-1,4-dicarboxylate] | 1.4 | 11.0 | 0.9 | 1.0 | 1.7 | – |
| Cn1cc(CC(=O)Oc2c(F)c(F)c(F)c(F)c2F)c2ccccc21 [fragment 22, Pentafluorophenyl 2-(1-methyl-1H-indol-3-yl)acetate] | – | – | – | – | – | R value (DMSO/fragment) for probe 1 labeling (DCTN2 Dynactin subunit 2; Q13561_K175, 50 uM, 231 sol, in vitro): 1.7; R value (DMSO/fragment) for probe 1 labeling ([1]; Q96EL2_K94, 50 uM, 231 sol, in vitro): 1.6; R value (DMSO/fragment) for probe 1 labeling ([2]; P55786_K712, 50 uM, 231 sol, in vitro): 1.3; blockade of probe 1 labeling of K100 ([3]; PNPO K100): fully blocking probe 1 labeling; R value (DMSO/fragment) for probe 1 labeling ([3]; Q9NVS9_K100, 50 uM, 231 sol, in vitro): 20.0; R value (DMSO/fragment) for probe 1 labeling ([4]; P62875_K67, 50 uM, 231 sol, in vitro): 0.9 |
| O=C(Oc1c(F)c(F)c(C(F)(F)F)c(F)c1F)c1cc(C(F)(F)F)cc(C(F)(F)F)c1 [fragment 47, 2,3,5,6-Tetrafluoro-4-(trifluoromethyl)phenyl 3,5-bis(trifluoromethyl)benzoate] | – | – | – | – | – | isoTOP-ABPP ratio, lysine Q13561_K175 (DCTN2 Dynactin subunit 2): 1.0; isoTOP-ABPP ratio, lysine P55786_K712 [2]: 1.0; isoTOP-ABPP ratio, lysine Q9NVS9_K100 [3]: 0.9; isoTOP-ABPP ratio, lysine P62875_K67 [4]: 1.0 |
| O=C(CC12CC3CC(CC(C3)C1)C2)Oc1ccc([N+](=O)[O-])cc1[N+](=O)[O-] [fragment 38, 2,4-Dinitrophenyl 2-(adamantan-1-yl)acetate] | 3.1 | 1.0 | 0.9 | – | – | – |
| O=C(ON1C(=O)CCC1=O)c1cc(C(F)(F)F)cc(C(F)(F)F)c1 [fragment 46, 3,5-Bis(trifluoromethyl)benzoic acid NHS ester] | – | – | – | – | – | isoTOP-ABPP ratio, lysine Q13561_K175 (DCTN2 Dynactin subunit 2): 0.8; isoTOP-ABPP ratio, lysine Q96EL2_K94 ([1]; 50 uM_231_sol_in vitro): 1.0; isoTOP-ABPP ratio, lysine P55786_K712 [2]: 1.3; isoTOP-ABPP ratio, lysine Q9NVS9_K100 [3]: 1.0; isoTOP-ABPP ratio, lysine P62875_K67 [4]: 1.0 |
